pIC50: −log10 of the molar value. Structures can show the parent of a compound that is named as a salt.

Among the data in patent US10259818B2, “Bicyclic azaheterocyclobenzylamines as PI3K inhibitors” (Incyte Corporation, priority 2012, dated 2019) are IC50 values, retold here.

For the first assay, the system named is SUDHL-6 cell line (diffuse large B cell lymphoma). As to the kind of experiment: SUDHL-6 cell proliferation assay (Example B3). The format is cell-based. To be noted: Homo sapiens, SU-DHL-6, 72 h, SUDHL-6 cells, 3 days, Cell Titer-GLO. The method, then: Example B3: SUDHL-6 Cell Proliferation Assay
SUDHL-6 cell line (diffuse large B cell lymphoma) was purchased from ATCC (Manassas, Va.) and maintained in the culture medium recommended (RPMI and 10% FBS). To measure the anti-proliferation activity of the compounds through ATP quantitation, the SUDHL-6 cells was plated with the culture medium (5000 cells/well/per 200 μl) into 96-well polystyrene clear black tissue culture plate (Greiner-bio-one through VWR, NJ) in the presence or absence of a concentration range of test compounds. After 3 days, Cell Titer-GLO Luminescent (Promega, Madison, Wis.) cell culture agent was added to each well for 10 minutes at room temperature to stabilize the luminescent signal. This determines the number of viable cells in culture based on quantitation of the ATP present, which signals the presence of metabolically active cells. Luminescence was measured with the TopCount 384 (Packard Bioscience through Perkin Elmer, Boston, Mass.). […] IC50 data for the Examples is presented in Table 4 determined by the assay of Example B3.
A general note: Cellular ATP, detected with luciferase, serves as a proxy for viable cell number.
As for `Cc1nn(C(C)c2cc(Cl)c(C#N)c3c2OC(C)CN(C2CN(CCO)C2)C3)c2ncnc(N)c12` (single isomer, unassigned) [Example 104, 9-[1-(4-amino-3-methyl-1H-pyrazolo[3,4-d]pyrimidin-1-yl)ethyl]-7-chloro-4-[1-(2-hydroxyethyl)azetidin-3-yl]-2-methyl-2,3,4,5-tetrahydro-1,4-benzoxazepine-6-carbonitrile], the pIC50 is at least 6.30. `CCOC(=O)N1CC(N2Cc3c(C#N)c(Cl)cc(C(C)n4nc(C)c5c(N)ncnc54)c3OC(C)C2)C1` (single isomer, unassigned) [Example 99, ethyl 3-[9-[1-(4-amino-3-methyl-1H-pyrazolo[3,4-d]pyrimidin-1-yl)ethyl]-7-chloro-6-cyano-2-methyl-2,3-dihydro-1,4-benzoxazepin-4(5H)-yl]azetidine-1-carboxylate] showed a pIC50 of at least 6.30.

Compound `Cc1nn(C(C)c2cc(Cl)c(C#N)c3c2OC(C)CN(C2CN(S(C)(=O)=O)C2)C3)c2ncnc(N)c12` (single isomer, unassigned) [Example 93, 9-[1-(4-amino-3-methyl-1H-pyrazolo[3,4-d]pyrimidin-1-yl)ethyl]-7-chloro-2-methyl-4-[1-(methylsulfonyl)azetidin-3-yl]-2,3,4,5-tetrahydro-1,4-benzoxazepine-6-carbonitrile] showed a pIC50 of at least 6.30. The same measure, in the same setting: with `CC(=O)N1CC(N2Cc3c(F)c(Cl)cc(C(C)n4nc(C)c5c(N)ncnc54)c3OC(C)C2=O)C1` (centres unmarked) [Example 71, 4-(1-Acetylazetidin-3-yl)-9-[1-(4-amino-3-methyl-1H-pyrazolo[3,4-d]pyrimidin-1-yl)ethyl]-7-chloro-6-fluoro-2-methyl-4,5-dihydro-1,4-benzoxazepin-3(2H)-one] the figure was 6.00 to 6.30; with `Cc1nn(C(C)c2cc(Cl)c(F)c3c2OC(C)CN(C2CN(C(=O)OC(C)(C)C)C2)C3)c2ncnc(N)c12` (single isomer, unassigned) [Example 26, tert-Butyl 3-[9-[1-(4-amino-3-methyl-1H-pyrazolo[3,4-d]pyrimidin-1-yl)ethyl]-7-chloro-6-fluoro-2-methyl-2,3-dihydro-1,4-benzoxazepin-4(5H)-yl]azetidine-1-carboxylate], at least 6.30; with `Cc1nn([C@@H](C)c2cc(Cl)c(F)c3c2O[C@@H](C)CN(C2CN(C[C@@H](C)O)C2)C3)c2ncnc(N)c12` [Example 86, (2R)-1-{3-[(2S)-9-[(1S)-1-(4-amino-3-methyl-1H-pyrazolo[3,4-d]pyrimidin-1-yl)ethyl]-7-chloro-6-fluoro-2-methyl-2,3-dihydro-1,4-benzoxazepin-4(5H)-yl]azetidin-1-yl}propan-2-ol], at least 6.30. Still for that read-out and setting: with `Cc1nn(C(C)c2cc(Cl)c(F)c3c2O[C@@H](C)CN(C2CC(C(=O)O)C2)C3)c2ncnc(N)c12` (some centres unmarked) [Example 41, 3-[9-[1-(4-Amino-3-methyl-1H-pyrazolo[3,4-d]pyrimidin-1-yl)ethyl]-7-chloro-6-fluoro-2-methyl-2,3-dihydro-1,4-benzoxazepin-4(5H)-yl]cyclobutanecarboxylic Acid Trifluoroacetate] the figure was at least 6.30; with `Cc1nn(C(C)c2cc(Cl)c(C#N)c3c2OC(C)CN(C2CN(CC(N)=O)C2)C3)c2ncnc(N)c12` (single isomer, unassigned) [Example 53, 2-{3-[9-[1-(4-Amino-3-methyl-1H-pyrazolo[3,4-d]pyrimidin-1-yl)ethyl]-7-chloro-6-cyano-2-methyl-2,3-dihydro-1,4-benzoxazepin-4(5H)-yl]azetidin-1-yl}acetamide], at least 6.30; with `CC(=O)N1CC(N2CCOc3c(C(C)n4nc(C)c5c(N)ncnc54)cc(Cl)c(C)c3C2)C1` (centres unmarked) [Example 4, 1-{1-[4-(1-Acetylazetidin-3-yl)-7-chloro-6-methyl-2,3,4,5-tetrahydro-1,4-benzoxazepin-9-yl]ethyl}-3-methyl-1H-pyrazolo[3,4-d]pyrimidin-4-amine], at least 6.30.

The compound `Cc1nn(C(C)c2cc(Cl)c(F)c3c2OC(C)CN(C2CN(S(C)(=O)=O)C2)C3)c2ncnc(N)c12` (centres unmarked) [Example 75, 1-(1-{7-chloro-6-fluoro-2-methyl-4-[1-(methylsulfonyl)azetidin-3-yl]-2,3,4,5-tetrahydro-1,4-benzoxazepin-9-yl}ethyl)-3-methyl-1H-pyrazolo[3,4-d]pyrimidin-4-amine] had a pIC50 of at least 6.30. Still for that read-out and setting: with `Cc1nn(C(C)c2cc(Cl)c(C#N)c3c2OC(C)CN(CC(N)=O)C3)c2ncnc(N)c12` (single isomer, unassigned) [Example 110, 2-[9-[1-(4-amino-3-methyl-1H-pyrazolo[3,4-d]pyrimidin-1-yl)ethyl]-7-chloro-6-cyano-2-methyl-2,3-dihydro-1,4-benzoxazepin-4(5H)-yl]acetamide] the figure was at least 6.30; with `Cc1nn(C(C)c2cc(Cl)c(C#N)c3c2OCCN(C2CN(C(=O)NC(C)C)C2)C3)c2ncnc(N)c12` (centres unmarked) [Example 91, 3-[9-[1-(4-amino-3-methyl-1H-pyrazolo[3,4-d]pyrimidin-1-yl)ethyl]-7-chloro-6-cyano-2,3-dihydro-1,4-benzoxazepin-4(5H)-yl]-N-isopropylazetidine-1-carboxamide], at least 6.30; with `CCOC(=O)N1CC(N2CCOc3c(C(C)n4nc(C)c5c(N)ncnc54)cc(Cl)c(C#N)c3C2)C1` (centres unmarked) [Example 92, ethyl 3-[9-[1-(4-amino-3-methyl-1H-pyrazolo[3,4-d]pyrimidin-1-yl)ethyl]-7-chloro-6-cyano-2,3-dihydro-1,4-benzoxazepin-4(5H)-yl]azetidine-1-carboxylate], at least 6.30. Same read-out and setting: with `Cc1c(Cl)cc(C(C)n2nc(C)c3c(N)ncnc32)c2c1CN(c1cnccn1)CCO2` (centres unmarked) [Example 24, 1-[1-(7-Chloro-6-methyl-4-pyrazin-2-yl-2,3,4,5-tetrahydro-1,4-benzoxazepin-9-yl)ethyl]-3-methyl-1H-pyrazolo[3,4-d]pyrimidin-4-amine bis(trifluoroacetate)] the figure was 6.00 to 6.30; with `Cc1nn(C(C)c2cc(Cl)c(F)c3c2OC(C)CN(C[C@@H](C)O)C3)c2ncnc(N)c12` (single isomer, unassigned) [Example 78], at least 6.30.

The compound `Cc1nn(C(C)c2cc(Cl)c(F)c3c2OCCN(C2CN(S(=O)(=O)N(C)C)C2)C3)c2ncnc(N)c12` (centres unmarked) [Example 74, 3-[9-[1-(4-amino-3-methyl-1H-pyrazolo[3,4-d]pyrimidin-1-yl)ethyl]-7-chloro-6-fluoro-2,3-dihydro-1,4-benzoxazepin-4(5H)-yl]-N,N-dimethylazetidine-1-sulfonamide] showed a negative logarithm of the IC50 (pIC50) of 6.00 to 6.30. Same read-out and setting: with `Cc1c(Cl)cc(C(C)n2nc(C)c3c(N)ncnc32)c2c1CN(C(C)C)CCO2` (centres unmarked) [Example 10, 1-[1-(7-Chloro-4-isopropyl-6-methyl-2,3,4,5-tetrahydro-1,4-benzoxazepin-9-yl)ethyl]-3-methyl-1H-pyrazolo[3,4-d]pyrimidin-4-amine bis(trifluoroacetate)] the figure was at least 6.30.

`Cc1nn(C(C)c2cc(Cl)c(C#N)c3c2OC(C)CN(C2CN(S(=O)(=O)N(C)C)C2)C3)c2ncnc(N)c12` (single isomer, unassigned) [Example 105, 3-[9-[1-(4-amino-3-methyl-1H-pyrazolo[3,4-d]pyrimidin-1-yl)ethyl]-7-chloro-6-cyano-2-methyl-2,3-dihydro-1,4-benzoxazepin-4(5H)-yl]-N,N-dimethylazetidine-1-sulfonamide]: the pIC50 is at least 6.30. As for `Cc1nn(C(C)c2cc(Cl)c(F)c3c2OCCN(C2CN(C(=O)N(C)C)C2)C3)c2ncnc(N)c12` (centres unmarked) [Example 73, 3-[9-[1-(4-amino-3-methyl-1H-pyrazolo[3,4-d]pyrimidin-1-yl)ethyl]-7-chloro-6-fluoro-2,3-dihydro-1,4-benzoxazepin-4(5H)-yl]-N,N-dimethylazetidine-1-carboxamide], the pIC50 is at least 6.30. Same read-out and setting: for `Cc1nn(C(C)c2cc(Cl)c(C#N)c3c2OC(C)CN(C2CN(C(=O)NC(C)C)C2)C3)c2ncnc(N)c12` (single isomer, unassigned) [Example 101, 3-[9-[1-(4-amino-3-methyl-1H-pyrazolo[3,4-d]pyrimidin-1-yl)ethyl]-7-chloro-6-cyano-2-methyl-2,3-dihydro-1,4-benzoxazepin-4(5H)-yl]-N-isopropylazetidine-1-carboxamide] the value was at least 6.30.

The same assay, now with this note: SUDHL-6 cells, 3 days, Cell Titer-GLO.
As to `Cc1nn(C(C)c2cc(Cl)c(C#N)c3c2OC(C)CN(C2CN(S(=O)(=O)N(C)C)C2)C3)c2ncnc(N)c12` (single isomer, unassigned) [Example 106, 3-[9-[1-(4-amino-3-methyl-1H-pyrazolo[3,4-d]pyrimidin-1-yl)ethyl]-7-chloro-6-cyano-2-methyl-2,3-dihydro-1,4-benzoxazepin-4(5H)-yl]-N,N-dimethylazetidine-1-sulfonamide], the pIC50 was at least 6.30.

In turn, `CCC1CN(CCO)Cc2c(C#N)c(Cl)cc(C(C)n3nc(C)c4c(N)ncnc43)c2O1` (single isomer, unassigned) [Example 70, 9-[1-(4-Amino-3-methyl-1H-pyrazolo[3,4-d]pyrimidin-1-yl)ethyl]-7-chloro-2-ethyl-4-(2-hydroxyethyl)-2,3,4,5-tetrahydro-1,4-benzoxazepine-6-carbonitrile] gave a negative logarithm of the IC50 (pIC50) of at least 6.30. For `Cc1nn(C(C)c2cc(Cl)c(C#N)c3c2OC(C)CN(C2CN(C(=O)NC(C)C)C2)C3)c2ncnc(N)c12` (single isomer, unassigned) [Example 102, 3-[9-[1-(4-amino-3-methyl-1H-pyrazolo[3,4-d]pyrimidin-1-yl)ethyl]-7-chloro-6-cyano-2-methyl-2,3-dihydro-1,4-benzoxazepin-4(5H)-yl]-N-isopropylazetidine-1-carboxamide], the pIC50 is at least 6.30.

A word on the pIC50: it is −log10 of the IC50, conventionally taken in molar units. Low values mean a large IC50, high ones a small IC50.
